{
  "source": "patent US8586550B2",
  "about": "“Thiazole derivatives as SGLT2 inhibitors and pharmaceutical composition comprising same” (Green Cross Corporation, priority 2010, dated 2013)",
  "data": [
    {"biological_target": "T1, Human SGLT2 (hSGLT2) (Homo sapiens, UniProt P31639)", "T1 construct": "expressed in transfected cells", "T1 sequence (P31639 1-672)": "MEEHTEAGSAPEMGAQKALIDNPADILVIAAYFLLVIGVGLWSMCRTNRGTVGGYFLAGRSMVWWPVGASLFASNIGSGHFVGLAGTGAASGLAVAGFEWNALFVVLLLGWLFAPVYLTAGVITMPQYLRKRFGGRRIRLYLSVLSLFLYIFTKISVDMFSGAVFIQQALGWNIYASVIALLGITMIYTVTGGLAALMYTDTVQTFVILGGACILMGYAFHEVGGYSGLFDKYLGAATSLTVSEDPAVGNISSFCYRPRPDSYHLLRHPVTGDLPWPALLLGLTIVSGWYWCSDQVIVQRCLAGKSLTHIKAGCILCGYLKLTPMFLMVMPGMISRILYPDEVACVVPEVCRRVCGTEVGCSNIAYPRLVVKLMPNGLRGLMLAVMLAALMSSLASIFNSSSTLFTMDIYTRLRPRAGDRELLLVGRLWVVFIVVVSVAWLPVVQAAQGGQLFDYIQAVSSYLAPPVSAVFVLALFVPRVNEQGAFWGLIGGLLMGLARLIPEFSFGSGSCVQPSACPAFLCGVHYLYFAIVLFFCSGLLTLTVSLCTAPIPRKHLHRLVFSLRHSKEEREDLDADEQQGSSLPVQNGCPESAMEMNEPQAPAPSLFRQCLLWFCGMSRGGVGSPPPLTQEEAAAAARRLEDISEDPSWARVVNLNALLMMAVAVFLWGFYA", "assay": "Sodium-dependent glucose transport (14C-AMG uptake) assay in CHO cells stably expressing hSGLT2", "type": "cell-based", "conditions": "CHO cells expressing hSGLT2, 14C-AMG uptake, 37° C. for 2 h; single determinations; read-out: hSGLT2 Inhibitory Activity IC50", "excerpt": "Cloning and Cell Line Construction for Human SGLT2\nHuman SGLT2 (hSGLT2) gene was amplified by PCR from cDNA-Human Adult Normal Tissue Kidney (Invitrogen). The hSGLT2 sequence was cloned into pcDNA3.1(+) for mammalian expression and were stably transfected into chinese hamster ovary (CHO) cells. SGLT2-expressing clones were selected based on resistance to G418 antibiotic (Geneticin) and activity in the ^14C-α-methyl-D-glucopyranoside (^14C-AMG) uptake assay.\nInhibitory Effects on Human SGLT2 Activities\nFor sodium-dependent glucose transport assay, cells expressing hSGLT2 were seeded into a 96-well culture plate at a density of 5×10^4 cells/well in RPMI medium 1640 containing 10% fetal bovine serum. The cells were used 1 day after plating. They were incubated in pretreatment buffer (10 mM HEPES, 5 mM Tris, 140 mM choline chloride, 2 mM KCl, 1 mM CaCl2, and 1 mM MgCl2, pH 7.4) at 37° C. for 10 min. They were then incubated in uptake buffer (10 mM HEPES, 5 mM Tris, 140 mM NaCl, 2 mM KCl, 1 mM CaCl2, 1 mM MgCl2, and 1 mM ^14C-nonlabeled AMG, pH 7.4) containing ^14C-labeled (8 μM) and inhibitor or dimethylsulfoxide (DMSO) vehicle at 37° C. for 2 h. Cells were washed twice with washing buffer (pretreatment buffer containing 10 mM AMG at room temperature) and then the radioactivity was measured using a liquid scintillation counter. IC50 was determined by nonlinear regression analysis using GraphPad PRISM [Katsuno, K. et al. J. Pharmacol. Exp. Ther. 2007, 320, 323-330; Han, S. et al. Deabetes, 2008, 57, 1723-1729].", "units": {"IC50": "nM"}, "values": [
      {"compound": "OC[C@H]1O[C@@H](c2ccc(Cl)c(Cc3ncc(-c4ccc(F)cc4)s3)c2)[C@H](O)[C@@H](O)[C@@H]1O", "note": "[Example 11, (2S,3R,4R,5S,6R)-2-(4-Chloro-3-((5-(4-fluorophenyl)thiazol-2-yl)methyl)phenyl)-6-(hydroxymethyl)-tetrahydro-2H-pyran-3,4,5-triol]", "IC50": 21.2},
      {"compound": "CCc1cnc(Cc2cc([C@@H]3O[C@H](CO)[C@@H](O)[C@H](O)[C@H]3O)ccc2Cl)s1", "note": "[Example 12, (2S,3R,4R,5S,6R)-2-(4-chloro-3-((5-ethylthiazol-2-yl)methyl)phenyl)-6-(hydroxymethyl)-tetrahydro-2H-pyran-3,4,5-triol]", "IC50": 16.7},
      {"compound": "CCCCc1cnc(Cc2cc([C@@H]3O[C@H](CO)[C@@H](O)[C@H](O)[C@H]3O)ccc2Cl)s1", "note": "[Example 13, (2S,3R,4R,5S,6R)-2-(3-((5-Butylthiazol-2-yl)methyl)-4-chlorophenyl)-6-(hydroxymethyl)-tetrahydro-2H-pyran-3,4,5-triol]", "IC50": 119},
      {"compound": "CCCCCc1cnc(Cc2cc([C@@H]3O[C@H](CO)[C@@H](O)[C@H](O)[C@H]3O)ccc2Cl)s1", "note": "[Example 14, (2S,3R,4R,5S,6R)-2-(4-Chloro-3-((5-pentylthiazol-2-yl)methyl)phenyl)-6-(hydroxymethyl)-tetrahydro-2H-pyran-3,4,5-triol]", "IC50": 13.3},
      {"compound": "CCCCCCc1cnc(Cc2cc([C@@H]3O[C@H](CO)[C@@H](O)[C@H](O)[C@H]3O)ccc2Cl)s1", "note": "[Example 15, (2S,3R,4R,5S,6R)-2-(4-Chloro-3-((5-hexylthiazol-2-yl)methyl)phenyl)-6-(hydroxymethyl)-tetrahydro-2H-pyran-3,4,5-triol]", "IC50": 5},
      {"compound": "CC(C)c1cnc(Cc2cc([C@@H]3O[C@H](CO)[C@@H](O)[C@H](O)[C@H]3O)ccc2Cl)s1", "note": "[Example 16, (2S,3R,4R,5S,6R)-2-(4-Chloro-3-((5-isopropylthiazol-2-yl)methyl)phenyl)-6-(hydroxymethyl)-tetrahydro-2H-pyran-3,4,5-triol]", "IC50": 51.4},
      {"compound": "C=CCc1cnc(Cc2cc([C@@H]3O[C@H](CO)[C@@H](O)[C@H](O)[C@H]3O)ccc2Cl)s1", "note": "[Example 17, (2S,3R,4R,5S,6R)-2-(3-((5-Allylthiazol-2-yl)methyl)-4-chlorophenyl)-6-(hydroxymethyl)-tetrahydro-2H-pyran-3,4,5-triol]", "IC50": 11.5},
      {"compound": "C/C=C(\\C)c1cnc(Cc2cc([C@@H]3O[C@H](CO)[C@@H](O)[C@H](O)[C@H]3O)ccc2Cl)s1", "note": "[Example 18, (2S,3R,4R,5S,6R,E)-2-(3-((5-(but-2-en-2-yl)thiazol-2-yl)methyl)-4-chlorophenyl)-6-(hydroxymethyl)-tetrahydro-2H-pyran-3,4,5-triol]", "IC50": 4.69},
      {"compound": "OC[C@H]1O[C@@H](c2ccc(Cl)c(Cc3ncc(C4CCCC4)s3)c2)[C@H](O)[C@@H](O)[C@@H]1O", "note": "[Example 19, (2S,3R,4R,5S,6R)-2-(4-Chloro-3-((5-cyclopentylthiazol-2-yl)methyl)phenyl)-6-(hydroxymethyl)-tetrahydro-2H-pyran-3,4,5-triol]", "IC50": 9.71},
      {"compound": "OC[C@H]1O[C@@H](c2ccc(Cl)c(Cc3ncc(C4CCCCC4)s3)c2)[C@H](O)[C@@H](O)[C@@H]1O", "note": "[Example 20, (2S,3R,4R,5S,6R)-2-(4-Chloro-3-((5-cyclohexylthiazol-2-yl)methyl)phenyl)-6-(hydroxymethyl)-tetrahydro-2H-pyran-3,4,5-triol]", "IC50": 25.4},
      {"compound": "CCOc1cnc(Cc2cc([C@@H]3O[C@H](CO)[C@@H](O)[C@H](O)[C@H]3O)ccc2Cl)s1", "note": "[Example 21, (2S,3R,4R,5S,6R)-2-(4-Chloro-3-((5-ethoxythiazol-2-yl)methyl)phenyl)-6-(hydroxymethyl)-tetrahydro-2H-pyran-3,4,5-triol]", "IC50": 18.8},
      {"compound": "CCCOc1cnc(Cc2cc([C@@H]3O[C@H](CO)[C@@H](O)[C@H](O)[C@H]3O)ccc2Cl)s1", "note": "[Example 22, (2S,3R,4R,5S,6R)-2-(4-Chloro-3-((5-propoxythiazol-2-yl)methyl)phenyl)-6-(hydroxymethyl)-tetrahydro-2H-pyran-3,4,5-triol]", "IC50": 12.4},
      {"compound": "CCCCCOc1cnc(Cc2cc([C@@H]3O[C@H](CO)[C@@H](O)[C@H](O)[C@H]3O)ccc2Cl)s1", "note": "[Example 23, (2S,3R,4R,5S,6R)-2-(4-Chloro-3-((5-(pentyloxy)thiazol-2-yl)methyl)phenyl)-6-(hydroxymethyl)-tetrahydro-2H-pyran-3,4,5-triol]", "IC50": 8.21},
      {"compound": "CCSc1cnc(Cc2cc([C@@H]3O[C@H](CO)[C@@H](O)[C@H](O)[C@H]3O)ccc2Cl)s1", "note": "[Example 24, (2S,3R,4R,5S,6R)-2-(4-Chloro-3-((5-(ethylthio)thiazol-2-yl)methyl)phenyl)-6-(hydroxymethyl)-tetrahydro-2H-pyran-3,4,5-triol]", "IC50": 30.9},
      {"compound": "CCCSc1cnc(Cc2cc([C@@H]3O[C@H](CO)[C@@H](O)[C@H](O)[C@H]3O)ccc2Cl)s1", "note": "[Example 25, (2S,3R,4R,5S,6R)-2-(4-Chloro-3-((5-(propylthio)thiazol-2-yl)methyl)phenyl)-6-(hydroxymethyl)-tetrahydro-2H-pyran-3,4,5-triol]", "IC50": 56.4},
      {"compound": "CCCCSc1cnc(Cc2cc([C@@H]3O[C@H](CO)[C@@H](O)[C@H](O)[C@H]3O)ccc2Cl)s1", "note": "[Example 26, (2S,3R,4R,5S,6R)-2-(3-((5-(Butylthio)thiazol-2-yl)methyl)-4-chlorophenyl)-6-(hydroxymethyl)-tetrahydro-2H-pyran-3,4,5-triol]", "IC50": 58.7},
      {"compound": "CCCCCSc1cnc(Cc2cc([C@@H]3O[C@H](CO)[C@@H](O)[C@H](O)[C@H]3O)ccc2Cl)s1", "note": "[Example 27, (2S,3R,4R,5S,6R)-2-(4-Chloro-3-((5-(pentylthio)thiazol-2-yl)methyl)phenyl)-6-(hydroxymethyl)-tetrahydro-2H-pyran-3,4,5-triol]", "IC50": 18.9},
      {"compound": "OC[C@H]1O[C@@H](c2ccc(Cl)c(C3(c4ncc(-c5ccoc5)s4)CC3)c2)[C@H](O)[C@@H](O)[C@@H]1O", "note": "[Example 28, (2S,3R,4R,5S,6R)-2-(4-Chloro-3-(1-(5-(furan-3-yl)thiazol-2-yl)cyclopropyl)phenyl)-6-(hydroxymethyl)tetrahydro-2H-pyran-3,4,5-triol]", "IC50": 110},
      {"compound": "OC[C@H]1O[C@@H](c2ccc(Cl)c(C3(c4ncc(-c5cccs5)s4)CC3)c2)[C@H](O)[C@@H](O)[C@@H]1O", "note": "[Example 29, (2S,3R,4R,5S,6R)-2-(4-Chloro-3-(1-(5-(thiophen-2-yl)thiazol-2-yl)cyclopropyl)phenyl)-6-(hydroxymethyl)tetrahydro-2H-pyran-3,4,5-triol]", "IC50": 38.6},
      {"compound": "Cc1ccc([C@@H]2O[C@H](CO)[C@@H](O)[C@H](O)[C@H]2O)cc1Cc1ncc(-c2ccco2)s1", "note": "[Example 30, (2S,3R,4R,5S,6R)-2-(3-((5-(Furan-2-yl)thiazol-2-yl)methyl)-4-methylphenyl)-6-(hydroxymethyl)tetrahydro-2H-pyran-3,4,5-triol]", "IC50": 1.43},
      {"compound": "Cc1ccc([C@@H]2O[C@H](CO)[C@@H](O)[C@H](O)[C@H]2O)cc1Cc1ncc(-c2cccs2)s1", "note": "[Example 32, (2R,3S,4R,5R,6S)-2-(Hydroxymethyl)-6-(4-methyl-3-((5-(thiophen-2-yl)thiazol-2-yl)methyl)phenyl)tetrahydro-2H-pyran-3,4,5-triol]", "IC50": 3.8},
      {"compound": "Cc1ccc([C@@H]2O[C@H](CO)[C@@H](O)[C@H](O)[C@H]2O)cc1Cc1ncc(-c2ccsc2)s1", "note": "[Example 33, (2R,3S,4R,5R,6S)-2-(Hydroxymethyl)-6-(4-methyl-3-((5-(thiophen-3-yl)thiazol-2-yl)methyl)phenyl)tetrahydro-2H-pyran-3,4,5-triol]", "IC50": 1.28},
      {"compound": "Cc1ccc([C@@H]2O[C@H](CO)[C@@H](O)[C@H](O)[C@H]2O)cc1Cc1ncc(-c2nccs2)s1", "note": "[Example 34, (2S,3R,4R,5S,6R)-2-(3-(2,5′-Bithiazol-2′-ylmethyl)-4-methylphenyl)-6-(hydroxymethyl)tetrahydro-2H-pyran-3,4,5-triol]", "IC50": 5.69}
    ]}
  ]
}
